Assay results reported in patent publication US11542259B2, “Compounds for the treatment of kinase-dependent disorders” (Exelixis, Inc., priority 2018, dated 2023).

Key:
[1] = biological target: Human Axl (residues H473-A894 with Q764R) (Homo sapiens (Human), UniProt P30530, Q764R); assay: Human AXL kinase assay (33P radiometric, KinaseProfiler); assay type: biochemical; conditions: 10 μM ATP
Description: (§1) Kinase activity and compound inhibition were investigated using the ^33P-Phosphoryl transfer radiometric kinase assay, performed using the KinaseProfiler™ service of Eurofins Pharma Discovery Services UK Limited. Dose-response experiments were performed using nine compound concentrations in a 96-well microtiter plate. For each assay, all compounds were prepared to a 50× final assay concentration (50 μM) in 100% DMSO, then diluted in a half-log series, with the final top concentration at 1 μM. This working stock of the compound was added to the assay well as the first component in the reaction, followed by the remaining components as detailed in the following assay protocols below. The positive control wells (100% kinase activity) contain all components of the reaction including 2% DMSO (control for solvent effects), except the compound of interest. Blank wells contain all components of the reaction, with the reference inhibitor, staurosporine. This reference compound was used to abolish kinase activity and generated the 0% kinase activity base-line. IC50 values were calculated by nonlinear regression analysis using the sigmoidal dose-response (variable slope) curve fit on XLFit version 5.3 (ID Business Solutions).
Human Axl (residues H473-A894 with Q764R, 161 nM) was incubated with 8 mM MOPS pH 7.0, 0.2 mM EDTA, 250 μM KKSRGDYMTMQIG (SEO ID NO. 43) 10 mM magnesium acetate and 10 μM [γ-33P-ATP]. The reaction was initiated by the addition of the Mg/ATP mix. After incubation for 40 minutes at room temperature, the reaction was stopped by the addition of phosphoric acid to a concentration of 0.5%. A reaction aliquot of 10 μL was then spotted onto a P30 filtermat and washed four times for 4 minutes in 0.425% phosphoric acid and once in methanol prior to drying and scintillation counting. Incorporated ^33P was measured using the Wallac Microbeta scintillation counter (Perkin Elmer).

[2] = biological target: Human Met (residues R974-S1390 with A1209G and V1290L) (Homo sapiens, UniProt P08581); assay: Human Met kinase assay (33P radiometric, KinaseProfiler); assay type: biochemical; conditions: 10 μM ATP, read-out: c-Met IC50
Description: as §1
Human Met (residues R974-S1390 with A1209G and V1290L, 3.4 nM) was incubated with 8 mM MOPS pH 7.0, 0.2 mM EDTA, 250 μM KKKGQEEEYVFIE (SEO ID NO. 45), 1 mM sodium orthovanadate, 5 mM […], 10 mM magnesium acetate, and 10 μM [γ-33P-ATP]. The reaction was initiated by the addition of the Mg/ATP mix. After incubation for 40 minutes at room temperature, the reaction was stopped by the addition of phosphoric acid to a concentration of 0.5%. A reaction aliquot of […] was then spotted onto a P30 filtermat and washed four times for 4 minutes in 0.425% phosphoric acid and once in methanol prior to drying and scintillation counting. Incorporated 33P was measured using the Wallac Microbeta scintillation counter (Perkin Elmer).

Met = Met (Homo sapiens (Human), UniProt P08581); assay: Met autophosphorylation ELISA in PC-3 cells; assay type: cell-based; conditions: cellular, HGF stimulated, read-out: c-Met IC50
Met, sequence (P08581 25-1390): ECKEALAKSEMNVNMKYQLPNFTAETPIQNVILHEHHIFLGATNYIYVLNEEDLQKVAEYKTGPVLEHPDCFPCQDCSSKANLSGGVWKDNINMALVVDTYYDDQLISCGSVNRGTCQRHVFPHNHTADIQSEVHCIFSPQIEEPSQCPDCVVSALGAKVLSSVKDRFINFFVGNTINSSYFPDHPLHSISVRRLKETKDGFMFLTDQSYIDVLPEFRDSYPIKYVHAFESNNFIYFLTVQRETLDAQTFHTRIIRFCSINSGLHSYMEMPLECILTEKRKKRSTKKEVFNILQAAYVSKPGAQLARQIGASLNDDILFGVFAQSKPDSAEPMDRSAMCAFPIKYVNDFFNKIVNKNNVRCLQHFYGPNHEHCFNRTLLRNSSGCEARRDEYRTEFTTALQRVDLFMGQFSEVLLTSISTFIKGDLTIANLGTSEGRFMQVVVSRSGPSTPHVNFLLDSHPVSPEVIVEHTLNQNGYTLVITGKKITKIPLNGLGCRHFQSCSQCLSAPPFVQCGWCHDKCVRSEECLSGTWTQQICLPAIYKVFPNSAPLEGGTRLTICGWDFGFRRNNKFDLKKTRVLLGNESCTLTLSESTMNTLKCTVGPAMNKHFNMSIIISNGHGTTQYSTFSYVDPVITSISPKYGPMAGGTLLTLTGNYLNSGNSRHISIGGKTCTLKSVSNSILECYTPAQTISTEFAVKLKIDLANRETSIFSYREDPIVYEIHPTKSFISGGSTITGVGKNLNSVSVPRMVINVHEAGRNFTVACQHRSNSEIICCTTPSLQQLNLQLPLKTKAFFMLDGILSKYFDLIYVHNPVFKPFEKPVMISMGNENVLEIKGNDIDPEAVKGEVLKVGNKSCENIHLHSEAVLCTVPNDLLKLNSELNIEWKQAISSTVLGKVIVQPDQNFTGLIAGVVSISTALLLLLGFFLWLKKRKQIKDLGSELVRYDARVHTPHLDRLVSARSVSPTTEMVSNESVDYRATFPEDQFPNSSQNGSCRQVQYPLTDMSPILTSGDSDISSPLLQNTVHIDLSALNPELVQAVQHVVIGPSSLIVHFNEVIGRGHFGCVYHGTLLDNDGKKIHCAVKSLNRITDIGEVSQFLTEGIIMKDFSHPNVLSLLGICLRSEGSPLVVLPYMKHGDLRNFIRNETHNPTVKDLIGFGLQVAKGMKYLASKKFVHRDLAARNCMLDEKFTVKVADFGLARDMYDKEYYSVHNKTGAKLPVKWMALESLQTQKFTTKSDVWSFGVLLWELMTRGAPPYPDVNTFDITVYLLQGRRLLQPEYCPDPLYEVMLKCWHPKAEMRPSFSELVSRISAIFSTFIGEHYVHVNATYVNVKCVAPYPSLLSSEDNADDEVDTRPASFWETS
In short: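 Phospho-Met (panTyr) sandwich ELISA on lysates of PC-3 cells given 100 ng/mL HGF for 10 min after 1 h compound exposure (8-point curve, 0.3% DMSO) following 3 h serum starvation. Normalised to HGF-stimulated DMSO and reference-inhibitor wells; 4-parameter logistic IC50.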

Human Axl (residues H473-A894 with Q764R), sequence (P30530 473-894 Q764R): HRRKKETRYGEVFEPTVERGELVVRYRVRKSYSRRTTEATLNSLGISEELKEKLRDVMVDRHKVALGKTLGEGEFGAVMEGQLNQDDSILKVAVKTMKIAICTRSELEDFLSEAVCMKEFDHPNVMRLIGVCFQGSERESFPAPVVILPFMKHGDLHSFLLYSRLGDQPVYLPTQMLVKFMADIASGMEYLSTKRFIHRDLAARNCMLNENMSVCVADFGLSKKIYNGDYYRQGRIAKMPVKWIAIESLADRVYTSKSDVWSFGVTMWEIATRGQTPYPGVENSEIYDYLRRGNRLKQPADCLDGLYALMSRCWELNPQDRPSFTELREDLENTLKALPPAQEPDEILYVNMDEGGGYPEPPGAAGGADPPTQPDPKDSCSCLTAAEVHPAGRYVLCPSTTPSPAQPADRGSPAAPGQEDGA

COc1cc2nccc(Oc3ccc(NC(=O)C4(C(=O)Nc5ccc(F)cc5)CC4)cc3)c2cc1-c1cccc(C#N)c1F [Compound 175, 1-N-[4-[6-(3-cyano-2-fluorophenyl)-7-methoxyquinolin-4-yl]oxyphenyl]-1-N′-(4-fluorophenyl)cyclopropane-1,1-dicarboxamide]
IC50 [1]: 10 to 100 nM | IC50 [2]: 10 to 100 nM | IC50 (Met): 10 to 100 nM

COc1cc2nccc(Oc3ccc(NC(=O)C4(C(=O)Nc5ccc(F)cc5)CC4)cc3)c2cc1-c1cn[nH]c1 [Compound 186, 1-N′-(4-fluorophenyl)-1-N-[4-[7-methoxy-6-(1H-pyrazol-4-yl)quinolin-4-yl]oxyphenyl]cyclopropane-1,1-dicarboxamide]
IC50 [1]: 10 to 100 nM | IC50 [2]: ≤ 10 nM | IC50 (Met): 10 to 100 nM

NC(=O)c1ccc2nccc(Oc3ccc(NC(=O)C4(C(=O)Nc5ccc(F)cc5)CC4)cc3)c2c1 [Compound 58, 1-N-[4-(6-carbamoylquinolin-4-yl)oxyphenyl]-1-N′-(4-fluorophenyl)cyclopropane-1,1-dicarboxamide]
IC50 [1]: 10 to 100 nM | IC50 [2]: 10 to 100 nM | IC50 (Met): 100 to 300 nM

COc1cc2nccc(Oc3ccc(NC(=O)C4(C(=O)Nc5ccc(F)cc5)CC4)cc3)c2cc1C1CC1 [Compound 187, 1-N-[4-(6-cyclopropyl-7-methoxyquinolin-4-yl)oxyphenyl]-1-N′-(4-fluorophenyl)cyclopropane-1,1-dicarboxamide]
IC50 [1]: ≤ 10 nM | IC50 [2]: 10 to 100 nM | IC50 (Met): 10 to 100 nM

CNC(=O)c1cc2nccc(Oc3ccc(NC(=O)C4(C(=O)Nc5ccc(F)cc5)CC4)cc3)c2cc1OC [Compound 153, 1-N′-(4-fluorophenyl)-1-N-[4-[6-methoxy-7-(methylcarbamoyl)quinolin-4-yl]oxyphenyl]cyclopropane-1,1-dicarboxamide]
IC50 [1]: 10 to 100 nM | IC50 [2]: 10 to 100 nM | IC50 (Met): 100 to 300 nM

CNC(=O)c1cc2nccc(Oc3ccc(NC(=O)C4(C(=O)Nc5ccc(F)cc5)CC4)cc3)c2cc1C [Compound 143, 1-N′-(4-fluorophenyl)-1-N-[4-[6-methyl-7-(methylcarbamoyl)quinolin-4-yl]oxyphenyl]cyclopropane-1,1-dicarboxamide]
IC50 [1]: 10 to 100 nM | IC50 [2]: ≤ 10 nM | IC50 (Met): 10 to 100 nM

COc1cc2nccc(Oc3ccc(NC(=O)C4(C(=O)Nc5ccc(F)cc5)CC4)cc3)c2cc1N1CC(O)C1 [Compound 199, 1-N′-(4-fluorophenyl)-1-N-[4-[6-(3-hydroxyazetidin-1-yl)-7-methoxyquinolin-4-yl]oxyphenyl]cyclopropane-1,1-dicarboxamide]
IC50 [1]: ≤ 10 nM | IC50 [2]: ≤ 10 nM | IC50 (Met): ≤ 10 nM

COc1cc2nccc(Oc3ccc(NC(=O)C4(C(=O)Nc5ccc(F)cc5)CC4)cc3)c2cc1N1CC(F)(F)C1 [Compound 200, 1-N-[4-[6-(3,3-difluoroazetidin-1-yl)-7-methoxyquinolin-4-yl]oxyphenyl]-1-N′-(4-fluorophenyl)cyclopropane-1,1-dicarboxamide]
IC50 [1]: 10 to 100 nM | IC50 [2]: 10 to 100 nM | IC50 (Met): 10 to 100 nM

COC(=O)c1cc2c(Oc3ccc(NC(=O)C4(C(=O)Nc5ccc(F)cc5)CC4)cc3)ccnc2cc1OC [Compound 5, methyl 4-[4-[[1-[(4-fluorophenyl)carbamoyl]-cyclopropanecarbonyl]amino]-phenoxy]-7-methoxyquinoline-6-carboxylate]
IC50 [1]: 10 to 100 nM | IC50 [2]: ≤ 10 nM | IC50 (Met): 10 to 100 nM

COc1cc2nccc(Oc3ccc(NC(=O)C4(C(=O)Nc5ccc(F)cc5)CC4)cc3)c2cc1-c1ccccn1 [Compound 176, 1-N′-(4-fluorophenyl)-1-N-[4-(7-methoxy-6-pyridin-2-ylquinolin-4-yl)oxyphenyl]cyclopropane-1,1-dicarboxamide]
IC50 [1]: ≤ 10 nM | IC50 [2]: 10 to 100 nM | IC50 (Met): 10 to 100 nM

COc1cc2nccc(Oc3ccc(NC(=O)C4(C(=O)Nc5ccc(F)cc5)CC4)cc3)c2cc1C1(O)COC1 [Compound 196, 1-N′-(4-fluorophenyl)-1-N-[4-[6-(3-hydroxyoxetan-3-yl)-7-methoxyquinolin-4-yl]oxyphenyl]cyclopropane-1,1-dicarboxamide]
IC50 [1]: ≤ 10 nM | IC50 [2]: ≤ 10 nM | IC50 (Met): 10 to 100 nM

COc1cc2nccc(Oc3ccc(NC(=O)C4(C(=O)Nc5ccc(F)cc5)CC4)cc3)c2cc1C1(O)CNC1 [Compound 197, 1-N′-(4-fluorophenyl)-1-N-[4-[6-(3-hydroxyazetidin-3-yl)-7-methoxyquinolin-4-yl]oxyphenyl]cyclopropane-1,1-dicarboxamide]
IC50 [1]: 10 to 100 nM | IC50 [2]: ≤ 10 nM | IC50 (Met): 100 to 300 nM

COc1cc2nccc(Oc3ccc(NC(=O)C4(C(=O)Nc5ccc(F)cc5)CC4)cc3)c2cc1C1(O)CN(C(=O)OC(C)(C)C)C1 [Compound 195, tert-butyl 3-[4-[4-[[1-[(4-fluorophenyl)carbamoyl]cyclopropanecarbonyl]amino]phenoxy]-7-methoxyquinolin-6-yl]-3-hydroxyazetidine-1-carboxylate]
IC50 [1]: 10 to 100 nM | IC50 [2]: 10 to 100 nM | IC50 (Met): 10 to 100 nM

COc1cc2nccc(Oc3ccc(NC(=O)C4(C(=O)Nc5ccc(F)cc5)CC4)cc3)c2cc1C(=O)NC1COC1 [Compound 13, 1-N′-(4-fluorophenyl)-1-N-[4-[7-methoxy-6-(oxetan-3-ylcarbamoyl)quinolin-4-yl]oxyphenyl]cyclopropane-1,1-dicarboxamide]
IC50 [1]: 10 to 100 nM | IC50 [2]: ≤ 10 nM | IC50 (Met): 10 to 100 nM

COc1cc2nccc(Oc3ccc(NC(=O)C4(C(=O)Nc5ccc(F)cc5)CC4)cc3)c2cc1C(=O)N1CC(O)C1 [Compound 16, 1-N′-(4-fluorophenyl)-1-N-[4-[6-(3-hydroxyazetidine-1-carbonyl)-7-methoxyquinolin-4-yl]oxyphenyl]cyclopropane-1,1-dicarboxamide]
IC50 [1]: 10 to 100 nM | IC50 [2]: ≤ 10 nM | IC50 (Met): 100 to 300 nM

COC(=O)c1cc2c(Oc3ccc(NC(=O)C4(C(=O)Nc5ccc(F)cc5)CC4)cc3Cl)ccnc2cc1OC [Compound 128, methyl 4-[2-chloro-4-[[1-[(4-fluorophenyl)carbamoyl]cyclopropanecarbonyl]amino]phenoxy]-7-methoxyquinoline-6-carboxylate]
IC50 [1]: ≤ 10 nM | IC50 [2]: ≤ 10 nM | IC50 (Met): 10 to 100 nM

COc1cc2nccc(Oc3ccc(NC(=O)C4(C(=O)Nc5ccc(F)cc5)CC4)cc3)c2cc1-c1ccc[nH]1 [Compound 188, 1-N′-(4-fluorophenyl)-1-N-[4-[7-methoxy-6-(1H-pyrrol-2-yl)quinolin-4-yl]oxyphenyl]cyclopropane-1,1-dicarboxamide]
IC50 [1]: 10 to 100 nM | IC50 [2]: ≤ 10 nM | IC50 (Met): 10 to 100 nM

COc1cc2nccc(Oc3ccc(NC(=O)C4(C(=O)Nc5ccc(F)cc5)CC4)cc3)c2cc1-c1cnoc1 [Compound 183, 1-N′-(4-fluorophenyl)-1-N-[4-[7-methoxy-6-(1,2-oxazol-4-yl)quinolin-4-yl]oxyphenyl]cyclopropane-1,1-dicarboxamide]
IC50 [1]: 10 to 100 nM | IC50 [2]: ≤ 10 nM | IC50 (Met): 10 to 100 nM

COCCOc1cc2nccc(Oc3ccc(NC(=O)C4(C(=O)Nc5ccc(F)cc5)CC4)cc3)c2cc1C(N)=O [Compound 103, 1-N-[4-[6-carbamoyl-7-(2-methoxyethoxy)quinolin-4-yl]oxyphenyl]-1-N′-(4-fluorophenyl)cyclopropane-1,1-dicarboxamide]
IC50 [1]: 10 to 100 nM | IC50 [2]: ≤ 10 nM | IC50 (Met): 10 to 100 nM

COc1cc2nccc(Oc3ccc(NC(=O)C4(C(=O)Nc5ccc(F)cc5)CC4)cc3)c2cc1-c1ccncc1 [Compound 202, 1-N′-(4-Fluorophenyl)-1-N-[4-(7-methoxy-6-pyridin-4-ylquinolin-4-yl)oxyphenyl]cyclopropane-1,1-dicarboxamide]
IC50 [1]: 10 to 100 nM | IC50 [2]: ≤ 10 nM | IC50 (Met): 10 to 100 nM

NC(=O)c1cc2c(Oc3ccc(NC(=O)C4(C(=O)Nc5ccc(F)cc5)CC4)cc3)ccnc2cc1F [Compound 67, 1-N-[4-(6-carbamoyl-7-fluoroquinolin-4-yl)oxyphenyl]-1-N′-(4-fluorophenyl)cyclopropane-1,1-dicarboxamide]
IC50 [1]: 10 to 100 nM | IC50 [2]: 10 to 100 nM | IC50 (Met): 100 to 300 nM
